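Step 1: Grow cells in 96-well plates. Step 2: Expose to compound for 48 hours at 5 concentrations. Step 3: Interpolate endpoints linearly; if unreached, use highest concentration. The concentration for full growth arrest is given as TGI.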 *1 amine or outer side, *2 acyl side, *3 side chain or, on linkers, in order; H or OH if unused. Where a SMILES comes first, the peptide text is derived from it. Bridges are numbered along the chain shown (N, C = ends). [ ]: non-standard residue; d: D form. ξ: configuration not given here. X35 = CC[C@H](C)[C@@H](N[*:1])[C@@H](O)CC(=O)O[C@H](C(=O)[C@H](C)C(=O)[*:2])C(C)C; NMeY = CN[C@@H](Cc1ccc(O)cc1)C(=O)O; dNMeL = CN[C@H](CC(C)C)C(=O)O; ξΔPro = O=C(O)C1C=CCN1
What was measured:
Assay in all cases: NCI anticancer screen, dose series, 48 h
[1] = tested on: MDA-MB-231 breast
[2] = tested on: MDA-N
[3] = tested on: OVCAR-8 ovarian
[4] = tested on: SR leukemia
[5] = tested on: NCI-H522 lung
[6] = tested on: NCI-H23 lung
[7] = tested on: SK-MEL-2 melanoma
[8] = tested on: HL-60(TB) leukemia
[9] = tested on: A549 NSCLC
[10] = tested on: SF-268 CNS

| Structure (SMILES) | TGI [1] [µM] | TGI [2] [µM] | TGI [3] [µM] | TGI [4] [µM] | TGI [5] [µM] | TGI [6] [µM] | TGI [7] [µM] | TGI [8] [µM] | TGI [9] [µM] | TGI [10] [µM] |
| --- | --- | --- | --- | --- | --- | --- | --- | --- | --- | --- |
| O=[N+]([O-])c1ccc2c(c1)n1c(N3CCCC3)[n+]3ccccc3c1c1c3cccc[n+]3c(N3CCCC3)n21 | > 100 | > 100 | > 100 | > 100 | > 100 | > 100 | > 100 | 94.1 | > 100 | 42.6 |
| Clc1nc2c(C#Cc3ccccc3)ncnc2n1C1CCCCO1 (stereo not given) | 48.4 | 25.2 | > 100 | 24.1 | 25.1 | 33.5 | 31.5 | 33.7 | 37.3 | 37.2 |
| COc1cc(S(=O)(=O)Nc2ccc(-c3csc(/N=C\c4ccccc4)n3)cc2)ccc1Cl | > 100 | > 100 | > 100 | > 100 | > 100 | > 100 | 60.6 | > 100 | > 100 | > 100 |
| O=[N+]([O-])c1cc(F)ccc1Sc1ccccc1 | > 10 | > 10 | > 10 | > 10 | > 10 | > 10 | > 10 | > 10 | > 10 | > 10 |
| CCN(CC)C1Oc2cc3c(cc2C(c2cc(OC)c(OC)c(OC)c2)C1C)OCO3 (stereo not given) | 65.9 | 0.456 | > 43.2 | 5.01 | 6.01 | > 49 | 11.7 | 0.932 | > 46.8 | > 58.2 |
| COC(=O)C1CC23C=CCN4CC(C2C)C2(c5ccccc5NC12)C43 (stereo not given) | > 100 | > 100 | > 100 | > 100 | > 100 | > 100 | > 100 | > 100 | > 100 | > 100 |
| COC1(OC)C=CC(=O)C=C1 | 7.2 | > 36.8 | 7.61 | > 100 | 0.885 | 10.6 | 21.5 | 15.6 | 21.3 | 16.7 |
| Nc1ccc2c(c1)NC(=O)[C@@H]1CCCN1C2=O | > 100 | > 100 | > 100 | > 100 | > 100 | > 100 | > 100 | > 100 | > 100 | > 100 |
| COC(=O)c1cc(C)ccc1/C=C1\Cc2c(C)cc(C)cc2C1=O | > 58.4 | > 100 | > 100 | > 100 | > 100 | > 72.3 | 63.7 | > 100 | > 100 | 37.1 |
| C=CC(OC(C)=O)c1ccc(OC(C)=O)cc1 (stereo not given) | 9.12 | 10.9 | 11.7 | 18.5 | 3.57 | 37.3 | 12 | 18.6 | 43.6 | 10.7 |
| O=C(O)COc1cc(-c2ccccc2)nc2ccccc12 | > 100 | 85.7 | > 100 | > 100 | > 100 | > 100 | > 100 | > 100 | > 100 | > 100 |
| CC(C)(CN1CCCCC1)C(/C=C/c1ccccc1)=N\NC(=O)N/N=C(/C=C/c1ccccc1)C(C)(C)CN1CCCCC1 | 2.81 | 3.01 | 3.38 | 2.08 | 3.35 | 4.68 | 3.73 | 2.86 | 6.12 | 8.94 |
| Cc1nc(Nc2nc3ccccc3[nH]2)nc(Cl)c1CCCl | > 100 | > 100 | > 100 | > 100 | > 100 | > 100 | > 100 | > 100 | > 100 | > 100 |
| CN(C)CCNC(=O)c1cc(NC(=O)c2cc(NC(=O)CC/C=C3/[C@@H]4CC[C@H]3N=N4)cn2C)cn1C | > 100 | > 100 | > 100 | > 100 | > 100 | > 100 | > 100 | > 100 | > 100 | > 100 |
| C=CCOC1(CC=C)C(=O)OC2C(O)COC21O (stereo not given) | > 100 | > 100 | > 100 | > 100 | > 100 | > 100 | > 100 | > 100 | > 100 | > 100 |
| CC(C#N)N(CCc1ccccc1)C(=O)c1ccccc1 (stereo not given) | > 100 | > 100 | > 100 | > 100 | > 100 | > 100 | > 100 | > 100 | > 100 | > 100 |
| COc1ccc2c(c1)C(=O)C1CCC(=O)N1C2c1ccc2c(c1)OCO2 (stereo not given) | 54.6 | > 100 | 44.2 | > 100 | 21.6 | 39.8 | 41.6 | 42.4 | 51.5 | 53.3 |
| C=C(CCOC)CCC1CCCCC(=C)[C@H]1O (stereo not given in full) | > 100 | > 100 | > 100 | > 100 | > 100 | > 100 | > 100 | > 100 | > 100 | > 100 |
| COc1cc(C)cc2c(-c3c(O)cc(O)c4c3C[C@H](C)N[C@H]4C)cc(-c3cc(-c4c(O)cc(O)c5c4C[C@H](C)N[C@H]5C)c4cc(C)cc(OC)c4c3O)c(O)c12 | > 100 | > 100 | > 100 | > 100 | > 100 | > 100 | > 100 | > 100 | > 100 | > 100 |
| CNC(=O)N(CCC#N)CCCN(C(=O)N(C)C)c1ccccc1 | > 100 | > 100 | > 100 | > 100 | > 100 | > 100 | > 100 | > 100 | > 100 | > 100 |
| O=C(O)CCSC1=NCCN1 | > 100 | > 100 | > 100 | > 100 | > 100 | > 100 | > 100 | > 100 | > 100 | > 100 |
| CC[C@H](C)[C@H]1NC(=O)[C@@H](NC(=O)[C@@H](CC(C)C)N(C)C(=O)C2C=CCN2)[C@@H](C)OC(=O)[C@H](Cc2ccc(OC)cc2)N(C)C(=O)[C@@H]2CCCN2C(=O)[C@H](CC(C)C)NC(=O)[C@@H](C)C(=O)[C@H](C(C)C)OC(=O)C[C@@H]1O (stereo not given in full) (H-[ξΔPro][dNMeL]T[X35]LP[NMeY](Me); ester 3-C) | < 0.0464 | 0.081 | 0.0118 | 2.54 | < 0.005 | 0.0198 | 0.0115 | > 50 | > 50 | 0.00802 |
| C[C@]12CC[C@H]3[C@@H](CCC4=C(Br)C(=O)C=C[C@@]43O)[C@@H]1CCC2=O | > 100 | > 100 | 80.2 | 58.8 | 38.1 | > 100 | > 100 | 81.6 | > 100 | > 100 |
| COc1cc2c(cc1O)CCN(C)[C@H]2Cc1ccc(Oc2c(O)c(OC)cc3c2C[C@H]2c4c(c(OC)c(OC)c(OC)c4-3)CCN2C)cc1 | 9.47 | 9.95 | 13.1 | 4.86 | 11.2 | 12.9 | 12.6 | 10.6 | 10 | 11.5 |
| COC(=O)[C@](C)(Cc1ccccc1)NC(=O)[C@@H](C)N1[C@@H](c2ccccc2)COC1(C)C | > 100 | > 100 | > 100 | > 100 | 99.3 | > 100 | > 100 | > 100 | > 100 | > 100 |
| CC1CN=C(c2ccc(-c3nc(-c4ccc(C5=NCC(C)N5)cc4)nc(N(C)C)n3)cc2)N1 (stereo not given) | 3.05 | 4.03 | 10 | 2.49 | 3.2 | 9.94 | 4.05 | 6.88 | 12.8 | 6.53 |
| CC1=NN2C(=N)/C(=C/c3ccccc3)C(=O)N=C2S1 | > 100 | > 100 | > 100 | > 100 | > 100 | > 100 | > 100 | > 100 | > 100 | > 100 |
| Cc1nc2cccc(F)c2c(=O)n1-c1nnc(C(F)(F)F)s1 | > 10 | > 10 | > 10 | > 10 | > 10 | > 10 | > 10 | > 10 | > 10 | > 10 |
| CC(C)(Cc1ccccc1)N1C(=O)N1C(C)(C)Cc1ccccc1 | > 100 | > 100 | > 100 | > 100 | 60.6 | 65.5 | 48.4 | 41.7 | 77.7 | > 100 |
| CC1(C)C=[N+]([O-])C(C)(C)N1O | > 10 | > 10 | > 10 | > 10 | > 10 | > 10 | > 10 | > 10 | > 10 | > 10 |
